# Read-outs that look alike come from different tables or passages of the source.
# Key:
# human orexin 1 receptor = human orexin 1 receptor (Homo sapiens (Human), UniProt O43613); experiment: Human orexin 1 receptor radioligand binding (competitive binding, CHO membranes)
# rat orexin 1 receptor = rat orexin 1 receptor (Rattus norvegicus (Rat), UniProt P56718); experiment: Rat orexin 1 receptor radioligand binding (competitive binding, HEK293 membranes)
# human orexin 2 receptor = human orexin 2 receptor (Homo sapiens (Human), UniProt O43614); experiment: Human orexin 2 receptor radioligand binding ([3H]-EMPA competition, HEK293 membranes)
# Chain of human orexin 2 receptor (O43614 whole entry): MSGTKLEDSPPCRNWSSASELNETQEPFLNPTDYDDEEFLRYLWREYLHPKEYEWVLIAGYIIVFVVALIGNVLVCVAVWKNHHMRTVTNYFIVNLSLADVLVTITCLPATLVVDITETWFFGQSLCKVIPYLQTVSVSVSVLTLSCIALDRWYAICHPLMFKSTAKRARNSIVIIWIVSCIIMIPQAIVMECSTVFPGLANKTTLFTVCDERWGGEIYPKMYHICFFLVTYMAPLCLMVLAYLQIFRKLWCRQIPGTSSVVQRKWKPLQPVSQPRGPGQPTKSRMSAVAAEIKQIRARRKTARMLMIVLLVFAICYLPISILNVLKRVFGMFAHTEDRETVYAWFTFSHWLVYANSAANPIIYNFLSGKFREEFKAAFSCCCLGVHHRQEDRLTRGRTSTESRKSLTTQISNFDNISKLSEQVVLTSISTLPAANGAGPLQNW
# [1] = human orexin 1 receptor, Table 2, averages from between 2-20 runs, read-out: hOX1 Ki
# [2] = rat orexin 1 receptor, Table 2, averages from between 2-20 runs, read-out: rOX1 Ki
# [3] = human orexin 2 receptor, Table 2, averages from between 2-20 runs, read-out: hOX2 Ki
# [4] = Table 2, further testing, averages from 2-20 runs, read-out: hOX1 Ki
# [5] = Table 2, further testing, averages from 2-20 runs, read-out: rOX1 Ki
# [6] = Table 2, further testing, averages from 2-20 runs, read-out: hOX2 Ki
# Chain of rat orexin 1 receptor (P56718 whole entry): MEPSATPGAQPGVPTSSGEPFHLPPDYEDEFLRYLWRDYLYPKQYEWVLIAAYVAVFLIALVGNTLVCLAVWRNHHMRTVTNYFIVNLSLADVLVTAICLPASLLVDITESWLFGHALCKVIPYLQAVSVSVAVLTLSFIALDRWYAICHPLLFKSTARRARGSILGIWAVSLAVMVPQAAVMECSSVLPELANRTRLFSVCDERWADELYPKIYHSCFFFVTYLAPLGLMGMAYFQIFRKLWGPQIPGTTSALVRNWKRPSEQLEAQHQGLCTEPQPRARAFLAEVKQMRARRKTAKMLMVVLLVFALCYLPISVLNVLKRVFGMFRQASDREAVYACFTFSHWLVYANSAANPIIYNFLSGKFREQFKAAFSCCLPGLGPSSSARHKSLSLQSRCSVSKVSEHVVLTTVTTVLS
# Chain of human orexin 1 receptor (O43613 whole entry): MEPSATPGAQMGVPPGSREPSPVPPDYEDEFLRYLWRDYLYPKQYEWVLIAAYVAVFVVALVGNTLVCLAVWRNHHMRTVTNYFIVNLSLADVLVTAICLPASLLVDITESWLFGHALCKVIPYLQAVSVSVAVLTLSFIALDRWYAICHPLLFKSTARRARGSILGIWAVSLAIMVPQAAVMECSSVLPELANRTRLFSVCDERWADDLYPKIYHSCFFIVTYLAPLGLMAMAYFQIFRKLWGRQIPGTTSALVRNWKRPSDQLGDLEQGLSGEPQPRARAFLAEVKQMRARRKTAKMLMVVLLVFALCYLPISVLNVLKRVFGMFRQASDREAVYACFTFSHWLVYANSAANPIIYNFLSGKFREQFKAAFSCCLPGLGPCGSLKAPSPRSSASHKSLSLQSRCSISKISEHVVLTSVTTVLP
SMILES,Ki (human orexin 2 receptor; [3]) [nM],Ki (human orexin 1 receptor; read-out: hOX1 Ki) [nM],Ki (rat orexin 1 receptor; read-out: rOX1 Ki) [nM],further results
"Cc1cnc(-n2nccn2)c(C(=O)N2[C@@H]3CC[C@H]2[C@H](Nc2cnc(C(F)(F)F)cn2)C3)c1 [Example 401, (5-methyl-2-(2H-1,2,3-triazol-2-yl)pyridin-3-yl)((1S,2R,4R)-2-((5-(trifluoromethyl)pyrazin-2-yl)amino)-7-azabicyclo[2.2.1]heptan-7-yl)methanone]",> 10000,–,–,Ki (human orexin 1 receptor; [1]): 394 nM; Ki (rat orexin 1 receptor; [2]): 196 nM
O=C(c1ccccc1-c1ncc(F)cn1)N1C2CCC1C(Oc1ccc(C(F)(F)F)cn1)C2 (racemic) [Example 433],2500,–,–,Ki (human orexin 1 receptor): 73 nM; Ki (rat orexin 1 receptor): 107 nM
"O=C(c1cccc(F)c1-c1ncc(F)cn1)N1[C@@H]2CC[C@H]1[C@H](Nc1ccc(C(F)(F)F)cn1)C2 [Example 375, (3-fluoro-2-(5-fluoropyrimidin-2-yl)phenyl)((1S,2R,4R)-2-((5-(trifluoromethyl)pyridin-2-yl)amino)-7-azabicyclo[2.2.1]heptan-7-yl)methanone]",2200,89,49,–
"O=C(c1cccc(F)c1-n1nccn1)N1[C@@H]2CC[C@H]1[C@H](Nc1ccc(Br)cn1)C2 [Example 305, ((1S,2R,4R)-2-((5-bromopyridin-2-yl)amino)-7-azabicyclo[2.2.1]heptan-7-yl)(3-fluoro-2-(2H-1,2,3-triazol-2-yl)phenyl)methanone]",980,12,24,–
"Cc1cnc(C(=O)N2[C@@H]3CC[C@H]2[C@H](Nc2ncc(C(F)(F)F)cc2F)C3)c(-n2nccn2)c1 [Example 420, ((1S,2R,4R)-2-((3-fluoro-5-(trifluoromethyl)pyridin-2-yl)amino)-7-azabicyclo[2.2.1]heptan-7-yl)(5-methyl-3-(2H-1,2,3-triazol-2-yl)pyridin-2-yl)methanone]",884,–,–,Ki (human orexin 1 receptor; [1]): 114 nM; Ki (rat orexin 1 receptor; [2]): 100 nM
"O=C(c1cccc(F)c1-n1nccn1)N1[C@@H]2CC[C@H]1[C@H](Nc1ncc(C(F)(F)F)cc1F)C2 [Example 449, (3-fluoro-2-(2H-1,2,3-triazol-2-yl)phenyl)((1S,2R,4R)-2-((3-fluoro-5-(trifluoromethyl)pyridin-2-yl)amino)-7-azabicyclo[2.2.1]heptan-7-yl)methanone]",–,–,–,Ki (human orexin 1 receptor; [4]): 41 nM; Ki (rat orexin 1 receptor; [5]): 34 nM; Ki (human orexin 2 receptor; [6]): 873 nM
"Cc1cccc(C(=O)N2[C@@H]3CC[C@H]2[C@H](Nc2cnc(Br)cn2)C3)c1-n1nccn1 [Example 312, ((1S,2R,4R)-2-((5-bromopyrazin-2-yl)amino)-7-azabicyclo[2.2.1]heptan-7-yl)(3-methyl-2-(2H-1,2,3-triazol-2-yl)phenyl)methanone]",360,9,6,–
"O=C(c1cccc(F)c1-c1ccccn1)N1[C@@H]2CC[C@H]1[C@H](Nc1ccc(C(F)(F)F)cn1)C2 [Example 320, (3-fluoro-2-(pyridin-2-yl)phenyl)((1S,2R,4R)-2-((5-(trifluoromethyl)pyridin-2-yl)amino)-7-azabicyclo[2.2.1]heptan-7-yl)methanone]",260,14,37,–
"Cc1cccc(C(=O)N2[C@@H]3CC[C@H]2[C@H](Nc2ncc(C(F)(F)F)cc2F)C3)c1-c1ncccn1 [Example 462, ((1S,2R,4R)-2-((3-fluoro-5-(trifluoromethyl)pyridin-2-yl)amino)-7-azabicyclo[2.2.1]heptan-7-yl)(3-methyl-2-(pyrimidin-2-yl)phenyl)methanone]",–,–,–,Ki (human orexin 1 receptor; [4]): 31 nM; Ki (rat orexin 1 receptor; [5]): 18 nM; Ki (human orexin 2 receptor; [6]): 339 nM
Cc1cccc(C(=O)N2C3CCC2C(Oc2ccc(C(F)(F)F)cn2)C3)c1-c1ncco1 (racemic) [Example 435],–,–,–,Ki (human orexin 1 receptor): 29 nM; Ki (rat orexin 1 receptor): 50 nM; Ki (human orexin 2 receptor): 520 nM
"O=C(c1c(F)cccc1-c1ncco1)N1[C@@H]2CC[C@H]1[C@H](Nc1cnc(C(F)(F)F)cn1)C2 [Example 411, (2-fluoro-6-(oxazol-2-yl)phenyl)((1S,2R,4R)-2-((5-(trifluoromethyl)pyrazin-2-yl)amino)-7-azabicyclo[2.2.1]heptan-7-yl)methanone]",622,31,53,–

# Source: patent US9637496B2, “Substituted 7-azabicycles and their use as orexin receptor modulators” (priority 2013, dated 2017)
